Experimental data taken from article PMC3795843 (Journal of molecular biology, 2013).

Tests used:
Sub2p = target: T1, Sub2p (Saccharomyces cerevisiae, UniProt Q07478); test: inhibition of RNA duplex unwinding, native PAGE; type: biochemical; details: 0.5 mM nucleotide, 0.5 mM ATP, 10 mM Tris pH 7.0, 50 mM KCl, 30 °C
T1 sequence (Q07478 2-446): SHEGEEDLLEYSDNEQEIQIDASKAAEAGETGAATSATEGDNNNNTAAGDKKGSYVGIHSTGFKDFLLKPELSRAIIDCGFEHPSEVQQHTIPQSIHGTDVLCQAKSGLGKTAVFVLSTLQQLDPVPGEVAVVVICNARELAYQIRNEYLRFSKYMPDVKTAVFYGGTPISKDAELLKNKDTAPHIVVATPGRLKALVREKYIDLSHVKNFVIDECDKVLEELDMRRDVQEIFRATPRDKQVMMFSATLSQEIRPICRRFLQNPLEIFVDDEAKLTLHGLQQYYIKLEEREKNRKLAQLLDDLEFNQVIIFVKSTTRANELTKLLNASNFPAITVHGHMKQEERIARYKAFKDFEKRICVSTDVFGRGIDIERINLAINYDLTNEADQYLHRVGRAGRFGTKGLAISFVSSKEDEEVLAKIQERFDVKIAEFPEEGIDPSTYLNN

Dbp5p = target: T2, Dbp5p (Saccharomyces cerevisiae, UniProt P20449); test: inhibition of RNA duplex unwinding, native PAGE; type: biochemical; details: 0.5 mM nucleotide, 0.5 mM ATP, 40 mM Hepes pH 7.5, 30 °C
T2 sequence (P20449 1-482): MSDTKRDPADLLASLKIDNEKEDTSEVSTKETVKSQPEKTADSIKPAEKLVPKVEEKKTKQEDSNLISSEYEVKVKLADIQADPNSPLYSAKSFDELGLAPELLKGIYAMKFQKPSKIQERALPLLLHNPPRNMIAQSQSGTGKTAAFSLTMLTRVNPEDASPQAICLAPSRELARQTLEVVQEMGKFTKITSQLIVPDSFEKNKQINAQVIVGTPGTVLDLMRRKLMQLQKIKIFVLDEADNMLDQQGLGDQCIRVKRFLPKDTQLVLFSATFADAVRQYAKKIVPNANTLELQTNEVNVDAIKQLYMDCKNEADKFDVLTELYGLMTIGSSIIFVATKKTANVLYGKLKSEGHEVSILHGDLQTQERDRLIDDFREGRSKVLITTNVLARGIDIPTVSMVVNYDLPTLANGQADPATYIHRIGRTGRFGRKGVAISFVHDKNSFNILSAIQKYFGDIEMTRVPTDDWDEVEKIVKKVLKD

Ded1p = Ded1p (Saccharomyces cerevisiae, UniProt P06634); test: fluorescence competition with mantADP; type: binding; details: no RNA; pH 8.0, 50 mM NaCl, 0.5 mM excess Mg2+, 19 °C
Ded1p, sequence (P06634 2-604): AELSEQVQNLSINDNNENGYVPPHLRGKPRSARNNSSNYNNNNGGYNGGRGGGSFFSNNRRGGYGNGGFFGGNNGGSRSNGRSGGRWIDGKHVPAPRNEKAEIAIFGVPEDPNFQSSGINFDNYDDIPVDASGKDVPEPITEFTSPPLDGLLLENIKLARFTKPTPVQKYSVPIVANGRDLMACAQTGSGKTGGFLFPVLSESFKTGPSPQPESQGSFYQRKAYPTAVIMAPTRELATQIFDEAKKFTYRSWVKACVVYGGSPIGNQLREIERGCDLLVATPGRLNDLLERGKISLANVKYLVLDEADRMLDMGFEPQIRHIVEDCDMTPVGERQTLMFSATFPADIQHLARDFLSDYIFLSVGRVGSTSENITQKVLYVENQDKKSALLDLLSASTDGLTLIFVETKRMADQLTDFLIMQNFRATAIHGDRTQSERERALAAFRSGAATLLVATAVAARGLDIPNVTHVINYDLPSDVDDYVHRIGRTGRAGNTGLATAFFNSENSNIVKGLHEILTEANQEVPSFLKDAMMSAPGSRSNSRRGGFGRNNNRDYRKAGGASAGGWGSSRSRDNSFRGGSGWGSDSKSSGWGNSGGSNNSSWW

SMILES	kunw (Sub2p)	kunw (Dbp5p)	K1/2 (Ded1p)
Nc1ncnc2c1ncn2[C@@H]1O[C@H](COP(=O)(O)OP(=O)(O)O)[C@@H](O)[C@H]1O [ADP]	Sub2p and Dbp5p showed only significant inhibition by ADP	Sub2p and Dbp5p showed only significant inhibition by ADP	–
Nc1ncnc2c1ncn2[C@@H]1O[C@H](COP(=O)(O)OP(=O)(O)OP(=O)(O)O)[C@@H](O)[C@H]1O [ATP]	–	–	Binding of ATP (red), ADP (blue), and AMP (green) to Ded1p in the absence of RNA
